In patent US9212182B2, “Bicyclic sulfonamide compounds as sodium channel inhibitors” (AMGEN INC., priority 2013, dated 2015) one finds IC50 data, which are given here for 29 compounds.

The target of this assay is Nav 1.7 (Homo sapiens (Human), UniProt Q15858). Description: in-vitro Nav 1.7 PX (IC50). The format is cell-based.
[1] abbreviates: in-vitro Nav 1.7 PX data (PatchXpress).

The structures appear in SMILES notation. pIC50: −log10 of the molar value. Like-named read-outs stand apart in the source and are kept apart here.

Nav 1.7, sequence (Q15858 whole entry): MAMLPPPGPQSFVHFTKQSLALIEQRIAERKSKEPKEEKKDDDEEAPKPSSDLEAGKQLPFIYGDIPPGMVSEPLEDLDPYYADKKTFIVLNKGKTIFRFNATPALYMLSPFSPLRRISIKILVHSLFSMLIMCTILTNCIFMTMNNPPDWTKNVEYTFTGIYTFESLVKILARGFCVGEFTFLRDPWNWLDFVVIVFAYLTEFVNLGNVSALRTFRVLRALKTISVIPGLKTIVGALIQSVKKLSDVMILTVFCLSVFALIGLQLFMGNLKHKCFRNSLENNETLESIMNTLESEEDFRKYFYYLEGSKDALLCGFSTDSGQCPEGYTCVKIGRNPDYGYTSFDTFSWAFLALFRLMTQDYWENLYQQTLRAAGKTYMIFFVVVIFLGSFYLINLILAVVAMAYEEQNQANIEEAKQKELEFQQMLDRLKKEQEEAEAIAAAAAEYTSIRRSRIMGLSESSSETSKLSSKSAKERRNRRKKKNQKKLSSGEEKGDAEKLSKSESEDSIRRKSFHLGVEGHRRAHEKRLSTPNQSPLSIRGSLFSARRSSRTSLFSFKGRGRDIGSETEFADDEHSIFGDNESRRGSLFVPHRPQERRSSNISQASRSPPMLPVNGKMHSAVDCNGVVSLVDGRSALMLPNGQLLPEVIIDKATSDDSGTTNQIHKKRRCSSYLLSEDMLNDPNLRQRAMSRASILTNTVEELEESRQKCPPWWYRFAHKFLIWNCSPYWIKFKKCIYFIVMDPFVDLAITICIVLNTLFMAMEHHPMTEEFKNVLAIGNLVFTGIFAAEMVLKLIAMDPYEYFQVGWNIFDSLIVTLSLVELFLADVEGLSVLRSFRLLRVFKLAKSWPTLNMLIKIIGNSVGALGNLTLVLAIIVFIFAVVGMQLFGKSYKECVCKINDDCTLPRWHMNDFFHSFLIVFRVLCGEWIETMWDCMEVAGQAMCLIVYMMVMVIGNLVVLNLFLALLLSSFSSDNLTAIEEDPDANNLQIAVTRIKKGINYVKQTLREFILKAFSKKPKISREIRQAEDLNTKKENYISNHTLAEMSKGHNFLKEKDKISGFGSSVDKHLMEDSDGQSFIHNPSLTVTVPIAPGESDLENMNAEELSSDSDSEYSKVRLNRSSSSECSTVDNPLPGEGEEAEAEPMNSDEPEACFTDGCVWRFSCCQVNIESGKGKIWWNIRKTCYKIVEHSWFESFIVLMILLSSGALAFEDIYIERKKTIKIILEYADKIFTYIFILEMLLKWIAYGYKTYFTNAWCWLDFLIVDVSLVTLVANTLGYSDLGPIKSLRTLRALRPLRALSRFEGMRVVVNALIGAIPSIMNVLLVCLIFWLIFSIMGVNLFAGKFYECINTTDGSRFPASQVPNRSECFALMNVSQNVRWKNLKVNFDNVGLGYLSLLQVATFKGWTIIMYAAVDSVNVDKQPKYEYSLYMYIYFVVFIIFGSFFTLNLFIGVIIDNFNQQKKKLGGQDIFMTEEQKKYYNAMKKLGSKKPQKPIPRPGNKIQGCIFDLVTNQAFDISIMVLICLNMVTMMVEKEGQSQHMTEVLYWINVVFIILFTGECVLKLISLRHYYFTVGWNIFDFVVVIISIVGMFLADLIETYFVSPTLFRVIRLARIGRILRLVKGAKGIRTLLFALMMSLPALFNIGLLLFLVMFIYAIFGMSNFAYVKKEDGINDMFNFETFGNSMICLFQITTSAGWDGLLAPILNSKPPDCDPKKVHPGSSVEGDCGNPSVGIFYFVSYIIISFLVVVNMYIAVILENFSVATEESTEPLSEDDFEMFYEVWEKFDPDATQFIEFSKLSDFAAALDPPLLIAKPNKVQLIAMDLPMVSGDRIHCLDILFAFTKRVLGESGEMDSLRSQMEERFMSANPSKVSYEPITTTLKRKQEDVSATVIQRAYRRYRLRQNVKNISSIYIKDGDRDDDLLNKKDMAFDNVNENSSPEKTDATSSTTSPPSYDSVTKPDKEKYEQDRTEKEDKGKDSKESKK

A word on the pIC50: it is the IC50 on a negative log10 scale, so that one unit is a factor of ten. Read a low pIC50 as a high IC50. As to `COc1cnc(-c2cc(Cl)ccc2F)cc1-n1c(=O)ccc2cc(S(=O)(=O)Nc3ccon3)ccc21` [Example 1169, 1-(2-(5-chloro-2-fluorophenyl)-5-methoxy-4-pyridinyl)-N-3-isoxazolyl-2-oxo-1,2-dihydro-6-quinolinesulfonamide], the negative logarithm of the IC50 (pIC50) is 6.09.

Turning to `O=c1ccc2cc(S(=O)(=O)Nc3ccon3)ccc2n1-c1cc(F)c(Br)cc1OC1CCNC1` (centres unmarked) [Example 625, 1-(4-bromo-5-fluoro-2-(PYRROLIDIN-3-YLOXY)phenyl)-N-(isoxazol-3-yl)-2-oxo-1,2-dihydroquinoline-6-sulfonamide], under setting [1], the pIC50 was 5.25.

Turning to `COc1cc(Cl)cc(-c2ccc(-n3c(=O)ccc4cc(S(=O)(=O)Nc5ncco5)ccc43)c(OC)c2)c1` [Example 925, 1-(3′-chloro-3,5′-dimethoxy-4-biphenylyl)-N-1,3-oxazol-2-yl-2-oxo-1,2-dihydro-6-quinolinesulfonamide], the pIC50 (in-vitro Nav 1.7 PX data) is 7.66.

`COc1cc(-c2cc(F)cnc2OC)c(C)cc1-n1c(=O)ccc2cc(S(=O)(=O)Nc3ccon3)ccc21` (atropisomer, axis not shown; (P)) [Example 426, (P)-1-(4-(5-fluoro-2-methoxy-3-pyridinyl)-2-methoxy-5-methylphenyl)-N-3-isoxazolyl-2-oxo-1,2-dihydro-6-quinolinesulfonamide] showed a pIC50 of 7.20.

`COc1cc(-c2ccnc(C)c2)c(F)cc1-n1c(=O)ccc2cc(S(=O)(=O)Nc3ccon3)ccc21` [Example 736, 1-(5-fluoro-2-methoxy-4-(2-methyl-4-pyridinyl)phenyl)-N-3-isoxazolyl-2-oxo-1,2-dihydro-6-quinolinesulfonamide] showed a pIC50 (in-vitro Nav 1.7 PX data) of 5.55.

`COc1cc(-c2ccc(Cl)c(C)c2)c(Cl)cc1-n1c(=O)ccc2cc(S(=O)(=O)Nc3ccon3)ccc21` (atropisomer, axis not shown; (P)) [Example 471, (P)-1-(2,4′-dichloro-5-methoxy-3′-methyl-[1,1′-biphenyl]-4-yl)-N-(isoxazol-3-yl)-2-oxo-1,2-dihydroquinoline-6-sulfonamide]: the pIC50 was 8.10.

For `COc1cc(-c2cc(C)cc(F)c2)ccc1-n1c(=O)ccc2cc(S(=O)(=O)Nc3ccon3)ccc21` [Example 1015, 1-(3′-fluoro-3-methoxy-5′-methyl-4-biphenylyl)-N-3-isoxazolyl-2-oxo-1,2-dihydro-6-quinolinesulfonamide], the negative-log IC50 (pIC50) (in-vitro Nav 1.7 PX data) is 7.92.

For the compound `COc1cc(-c2cc(Cl)cnc2OC)c(F)cc1-n1c(=O)ccc2cc(S(=O)(=O)Nc3ccnc(C)n3)ccc21` [Example 778, 1-(4-(5-chloro-2-methoxy-3-pyridinyl)-5-fluoro-2-methoxyphenyl)-N-(2-methyl-4-pyrimidinyl)-2-oxo-1,2-dihydro-6-quinolinesulfonamide], the negative logarithm of the IC50 (pIC50) (in-vitro Nav 1.7 PX data) was 6.95.

As to `COc1cc(-c2cccc(Cl)c2)c(C)cc1-n1c(=O)ccc2cc(S(=O)(=O)Nc3ncccn3)ccc21` (atropisomer, axis not shown; (M)) [Example 322, (M)-1-(3′-chloro-5-methoxy-2-methyl-4-biphenylyl)-2-oxo-N-2-pyrimidinyl-1,2-dihydro-6-quinolinesulfonamide], the pIC50 is 5.41.

Take `COc1cc(-c2ccc(F)cc2)c(F)cc1-n1c(=O)cnc2cc(S(=O)(=O)Nc3ccon3)ccc21` [Example 1141, 1-(2,4′-difluoro-5-methoxy-4-biphenylyl)-N-3-isoxazolyl-2-oxo-1,2-dihydro-6-quinoxalinesulfonamide]: the negative-log IC50 (pIC50) is 6.97.

Under setting [1], `O=c1ccc2cc(S(=O)(=O)Nc3nncs3)ccc2n1-c1ccc(-c2cc(F)cc(F)c2)cc1C1CC1` [Example 1046, 1-(3-cyclopropyl-3′,5′-difluoro-4-biphenylyl)-2-oxo-N-1,3,4-thiadiazol-2-yl-1,2-dihydro-6-quinolinesulfonamide] had a pIC50 of 6.95.

The compound `COc1cc(-c2cccc(F)c2)c(Cl)cc1-n1c(=O)ccc2cc(S(=O)(=O)Nc3ccon3)c(F)cc21` (atropisomer, axis not shown; (P)) [Example 545, (P)-1-(2-chloro-3′-fluoro-5-methoxy-4-biphenylyl)-7-fluoro-N-3-isoxazolyl-2-oxo-1,2-dihydro-6-quinolinesulfonamide] showed a pIC50 of 8.00.

The compound `COc1cc(-c2ccc(F)c(F)c2)c(F)cc1-n1c(=O)ccc2cc(S(=O)(=O)Nc3ncccn3)ccc21` [Example 935, 2-oxo-N-2-pyrimidinyl-1-(2,3′,4′-trifluoro-5-methoxy-4-biphenylyl)-1,2-dihydro-6-quinolinesulfonamide] showed a pIC50 (in-vitro Nav 1.7 PX data) of 7.66.

For the setting “in-vitro Nav 1.7 PX data”, `Cc1cc(-c2cc(C)c(-n3c(=O)ccc4cc(S(=O)(=O)Nc5ncccn5)ccc43)cc2F)ccc1Cl` (atropisomer, axis not shown; (P)) [Example 649] had a negative logarithm of the IC50 (pIC50) of 7.31.

Compound `COc1nc(OCc2ccc(F)cc2)c(Cl)cc1-n1c(=O)ccc2cc(S(=O)(=O)Nc3ccon3)ccc21` [Example 1214, 1-(5-chloro-6-((4-fluorobenzyl)oxy)-2-methoxy-3-pyridinyl)-N-3-isoxazolyl-2-oxo-1,2-dihydro-6-quinolinesulfonamide] had a pIC50 of 6.95.

Turning to `O=c1ccc2cc(S(=O)(=O)Nc3ccon3)ccc2n1-c1ccc(C(F)(F)F)cc1-c1cn[nH]c1` [Example 347, M-1-(2-(1H-pyrazol-4-yl)-4-(trifluoromethyl)phenyl)-N-(isoxazol-3-yl)-2-oxo-1,2-dihydroquinoline-6-sulfonamide], the pIC50 is 5.18.

Take `O=c1ccc2cc(S(=O)(=O)Nc3ccon3)ccc2n1-c1ccc(C(F)(F)F)cc1-c1cn[nH]c1` [Example 346, P-1-(2-(1H-pyrazol-4-yl)-4-(trifluoromethyl)phenyl)-N-(isoxazol-3-yl)-2-oxo-1,2-dihydroquinoline-6-sulfonamide]: the pIC50 was 6.19.

Compound `CCOc1cc(-c2cccc(F)c2)c(F)cc1-n1c(=O)ccc2cc(S(=O)(=O)Nc3ccon3)ccc21` (atropisomer, axis not shown; (P)) [Example 388, (P)-1-(5-ethoxy-2,3′-difluoro-[1,1′-biphenyl]-4-yl)-N-(isoxazol-3-yl)-2-oxo-1,2-dihydroquinoline-6-sulfonamide] had a negative logarithm of the IC50 (pIC50) of 7.32.

The compound `COc1cc(-c2cccc(C)c2)c(F)cc1-n1c(=O)ccc2cc(S(=O)(=O)Nc3ccon3)ccc21` (atropisomer, axis not shown; (M)) [Example 523, (M)-1-(2-fluoro-5-methoxy-3′-methyl-4-biphenylyl)-N-3-isoxazolyl-2-oxo-1,2-dihydro-6-quinolinesulfonamide] showed a pIC50 (in-vitro PatchXpress (PX)) of 5.32.

Compound `COc1cc(-c2cc(F)cc(Cl)c2)ccc1-n1c(=O)ccc2cc(S(=O)(=O)Nc3ccon3)ccc21` (atropisomer, axis not shown; (M)) [Example 429, (M)-1-(3′-chloro-5′-fluoro-3-methoxy-4-biphenylyl)-N-3-isoxazolyl-2-oxo-1,2-dihydro-6-quinolinesulfonamide] showed a negative logarithm of the IC50 (pIC50) of 5.80.

Turning to `COc1ccc(-c2cncc(C#N)c2)cc1-n1c(=O)ccc2cc(S(=O)(=O)Nc3ccon3)ccc21` [Example 491, 1-(5-(5-cyano-3-pyridinyl)-2-methoxyphenyl)-N-3-isoxazolyl-2-oxo-1,2-dihydro-6-quinolinesulfonamide], the negative logarithm of the IC50 (pIC50) was 5.68.

`CCOc1cccc(-c2cc(OC)c(-n3c(=O)ccc4cc(S(=O)(=O)Nc5ccon5)ccc43)cc2F)c1` [Example 727, 1-(3′-ethoxy-2-fluoro-5-methoxy-4-biphenylyl)-N-3-isoxazolyl-2-oxo-1,2-dihydro-6-quinolinesulfonamide] gave a pIC50 (in-vitro Nav 1.7 PX data) of 7.60.

Turning to `COc1cc(-c2ccc(C3CC3)cc2)c(F)cc1-n1c(=O)ccc2cc(S(=O)(=O)Nc3ccon3)ccc21` [Example 757, 1-(4′-cyclopropyl-2-fluoro-5-methoxy-4-biphenylyl)-N-3-isoxazolyl-2-oxo-1,2-dihydro-6-quinolinesulfonamide], for the setting “in-vitro Nav 1.7 PX data”, the negative logarithm of the IC50 (pIC50) was 7.46.

As for `COc1cc(-c2ccc(Cl)c(C)c2)c(F)cc1-n1c(=O)c(OC)cc2cc(S(=O)(=O)Nc3ccon3)ccc21` (atropisomer, axis not shown; (M)) [Example 413, (M)-1-(4′-chloro-2-fluoro-5-methoxy-3′-methyl-[1,1′-biphenyl]-4-yl)-N-(isoxazol-3-yl)-3-methoxy-2-oxo-1,2-dihydroquinoline-6-sulfonamide], the pIC50 is 5.23.

For the compound `COc1cc(-c2cncc(Cl)c2)c(F)cc1-n1c(=O)ccc2cc(S(=O)(=O)Nc3ccon3)ccc21` (atropisomer, axis not shown; (P)) [Example 408, (P)-1-(4-(5-chloro-3-pyridinyl)-5-fluoro-2-methoxyphenyl)-N-3-isoxazolyl-2-oxo-1,2-dihydro-6-quinolinesulfonamide], the pIC50 (in-vitro PatchXpress (PX)) is 5.09.

Where the note is “in-vitro Nav 1.7 PX data”, `COc1cc(-c2cccc(Cl)c2C)ccc1-n1c(=O)ccc2cc(S(=O)(=O)Nc3ccon3)ccc21` [Example 1028, 1-(3′-chloro-3-methoxy-2′-methyl-4-biphenylyl)-N-3-isoxazolyl-2-oxo-1,2-dihydro-6-quinolinesulfonamide] showed a pIC50 of 7.74.

`COc1cc(-c2cccc(OC(F)F)c2)c(F)cc1-n1c(=O)ccc2cc(S(=O)(=O)Nc3cccnn3)ccc21` (atropisomer, axis not shown; (P)) [Example 1172, (P)-1-(3′-(difluoromethoxy)-2-fluoro-5-methoxy-4-biphenylyl)-2-oxo-N-3-pyridazinyl-1,2-dihydro-6-quinolinesulfonamide] gave a pIC50 of 7.54.

For `COc1cc(-c2ccc(Cl)cc2)ccc1-n1c(=O)ccc2cc(S(=O)(=O)Nc3cc(C)ncn3)ccc21` [Example 767, 1-(4′-chloro-3-methoxy-4-biphenylyl)-N-(6-methyl-4-pyrimidinyl)-2-oxo-1,2-dihydro-6-quinolinesulfonamide], for the setting “in-vitro Nav 1.7 PX data”, the negative-log IC50 (pIC50) is 7.27.

`COc1cc(-c2cccc(OC)c2C)ccc1-n1c(=O)ccc2cc(S(=O)(=O)Nc3ccon3)ccc21` [Example 787, 1-(3,3′-dimethoxy-2′-methyl-4-biphenylyl)-N-3-isoxazolyl-2-oxo-1,2-dihydro-6-quinolinesulfonamide] had a negative logarithm of the IC50 (pIC50) (in-vitro Nav 1.7 PX data) of 7.28.
